Type in all cases: cell-based
The test system of experiment [1] is PC3. As to the kind of experiment: Test A: Cytostatic Cell Culture Assay (GI50), PC3. Conditions: Homo sapiens, PC-3, 120 h; PC3 cells, 5 days, SRB; read-out: G150 Prostate PC3. From the text:
(§1) Test A: Cytostatic Cell Culture Assay (GI50)
(§2) This assay is based on quantification of cell counts by a calorimetric detection of the cell associated proteins. The assay relies on the ability of sulforhodamine B (SRB) to bind to protein components of cells that have been fixed to tissue-culture plates by trichloroacetic acid (TCA). SRB is a bright-pink aminoxanthene dye with two sulfonic groups that bind to basic amino-acid residues under mild acidic conditions, and dissociate under basic conditions. As the binding of SRB is stoichiometric, the amount of dye extracted from stained cells is directly proportional to the cell mass.
(§3) Cell lines: All cell lines are obtained from ATCC (Manassas, Va.). Cultivation media containing Glutanax, and trypsin are purchased from Invitrogen (Carlsbad, Calif.). Doxorubicin, Clofarabine, TCA and SRB are from Sigma-Aldrich (St. Louis, Mo.). Gemcitabine is obtained from Moravek Biochemicals (Brea, Calif.)
(§4) • 1. Trypsinize the sub-confluent cells, count them, and adjust the cell concentrations according to the cell counts listed in Table 1. • 2. Distribute the cells into the 96-well plates in 150 μL of media. Incubate the plates overnight in humidified CO2 incubator at 37° C. • 3. Fix one plate of each cell line with TCA. Discard the cultivation media from the plates by flicking them gently and add 100 μL cold 10% (vol/vol) TCA to each well. Incubate the plates at 4 degree refrigerator for 1 hour. Discard TCA from the plates by flicking them gently. Rinse plates four times in a washing basin containing tap water. Store the plates at room temperature. These plates represent cell counts on day zero. • 4. Prepare a set of medium solutions containing various concentrations of tested compounds by making 5-fold serial dilutions in 96-well plate. Add 50 μL of the diluted compounds per well. Include controls with untreated cells and cells treated with doxorubicin, clofarabine and gemcitabine. • 5. Incubate the plates for 5 days at 37° C. • 6. Fix the plates with TCA. Discard the cultivation media from the plates by flicking them gently and add 100 μL cold 10% (vol/vol) TCA to each well. Incubate the plates at 4 degree refrigerator for 1 hour. Discard TCA from the plates by flicking them gently. Rinse plates four times in a washing basin containing tap water. • 7. Remove excess water by tapping the plates face down, gently on a paper towel. Allow the plates to air-dry at room temperature. • 8. Add 100 μL of 0.057% SRB solution in 1% (vol/vol) acetic acid to each well of the plates fixed with TCA on day zero and five. Leave at room temperature for 30 minutes. • 9. Flick the plates gently to discard SRB. Rinse the plates four times with 1% (vol/vol) Acetic Acid. • 10. Store the plates at 370 incubator to facilitate faster drying. • 11. Once the plates are completely dry, add 200 μL of 10 mM Tris base solution (pH 10.5) to each well. Leave at room temperature for 30 minutes for SRB to solubilize. • 12. Measure the OD at 500 nm in a microplate reader. • 13. Calculate the percentage of cell-growth inhibition using the next formula: % of control cell growth=100×(ODsample−mean ODday0)/(ODneg control−mean ODday0)
(§5) For GI50 determination, plot a dose-response curves between the compound concentration and percent of growth inhibition. GI50 values can be derived by fitting dose-response curves using sigmoidal dose response equation.

In experiment [2] the test system is Hs578. As to the kind of experiment: Test A: Cytostatic Cell Culture Assay (GI50), Hs578. Conditions: 120 h; Hs578 cells, 5 days, SRB; read-out: G150 Breast Hs578.
Excerpt: as §1, §2, §3, §4, §5

For experiment [3], the system named is Du145. As to the kind of experiment: Test A: Cytostatic Cell Culture Assay (GI50), Du145. Conditions: Homo sapiens, DU-145, 120 h; Du145 cells, 5 days, SRB; read-out: G150 Prostate Du145.
Excerpt: as §1, §2, §3, §4, §5

Experiment [4] concerns NCIH23. Description: Test A: Cytostatic Cell Culture Assay (GI50), NCIH23. Conditions: Homo sapiens, NCI-H23, 120 h; NCIH23 cells, 5 days, SRB; read-out: G150 Lung NCIH23.
Excerpt: as §1, §2, §3, §4, §5

In experiment [5] the test system is A549. As to the kind of experiment: Test A: Cytostatic Cell Culture Assay (GI50), A549. Conditions: Homo sapiens, 120 h; A549 cells, 5 days, SRB; read-out: G150 Lung A549.
Excerpt: as §1, §2, §3, §4, §5

The subject of experiment [6] is HCT116. Description: Test A: Cytostatic Cell Culture Assay (GI50), HCT116. Conditions: Homo sapiens, HCT-116, 120 h; HCT116 cells, 5 days, SRB; read-out: G150 Colon HCT116.
Excerpt: as §1, §2, §3, §4, §5

In experiment [7] the test system is Human T-lymphoid cell line CCRF-CEM. Description: Cell cycle distribution in human T-lymphoid cells (propidium iodide, flow cytometry). Conditions: 72 hours; for Relative change in cell cycle phase compared to untreated control, G1 / Relative change in cell cycle phase compared to untreated control, G2/M / Relative change in cell cycle phase compared to untreated control, S: concentration corresponding to CC50, untreated control = 1. As for the experimental part: Effects of the Compounds on Cell Cycle Distribution in Human T-Lymphoid Cells
Human T-lymphoid cell line CCRF-CEM is treated with tested compounds for 72 hours at the concentration corresponding to the CC50 value of each compound. At the end of incubation, cells are harvested by centrifugation, washed, and fixed in ethanol. Fixed cells are stained with propidium iodide in a buffer containing RNaseA and the cell cycle distribution analysis is performed by flow cytometry using BD FACSAria instrument. Data are processed using BD FACSDiva software v4.1 and presented as a percentage of analyzed cell population in Phase G1, S, and G2/M. Cell cycle distribution is determined in parallel for untreated and treated cells and relative change for each cell cycle phase is calculated.
The data represent changes in the frequency of each cell cycle phase in treated cells relative to untreated control (the relative fraction of each analyzed cell cycle phase in untreated control has the value of 1).
Primary data are shown in Table 3, with values representing the percentage distribution of each cell cycle phase in the total cell population.
Background: Flow cytometry measures light scatter and fluorescence of single cells or particles in a stream.

Experiment [8] concerns HCT15. As to the kind of experiment: Test A: Cytostatic Cell Culture Assay (GI50), HCT15. Conditions: Homo sapiens, HCT-15, 120 h; HCT15 cells, 5 days, SRB; read-out: G150 Colon HCT15.
Excerpt: as §1, §2, §3, §4, §5

Results on three compounds are retold here after patent publication US8093226B2, “Cytostatic 7-deazapurine nucleosides” (Institute of Organic Chemistry and Biochemistry of the …, priority 2008, dated 2012).

`OC[C@H]1O[C@@H](n2ccc3c(-c4cccs4)ncnc32)[C@H](O)[C@@H]1O` [Example 6, 7-(β-D-Ribofuranosyl)-4-(thiophen-2-yl)-7H-pyrrolo[2,3-d]pyrimidine]: the IC50 in experiment [1] was found to be 67 nM; in experiment [2], 101 nM; in experiment [3], 9 nM; in experiment [4], 4100 nM; in experiment [5] it was 45 nM; in experiment [6], 49 nM. In addition, the IC50 in experiment [8] was determined as 78 nM. Also, the G1 % in experiment [7] (0.3 μM, replicate 1) came to 30.82%; in experiment [7] (0.3 μM, replicate 2) it was 14.66%. In addition, the G2/M % in experiment [7] (0.3 μM, replicate 1) was 14.53%; in experiment [7] (0.3 μM, replicate 2), 22.05%. Moreover, the S % was 54.65% in experiment [7] (0.3 μM, replicate 1) and 63.29% in experiment [7] (0.3 μM, replicate 2). Further, the “Relative change in cell cycle phase compared to untreated control, G1” value (“Relative change in cell cycle phase … G1” for short) in experiment [7] was determined as 0.52. Moreover, the “Relative change in cell cycle phase compared to untreated control, G2/M” value (shortened to “Relative change in cell cycle phase … G2/M”) in experiment [7] was found to be 1.54. Further, the “Relative change in cell cycle phase compared to untreated control, S” value (from here on “Relative change … to untreated control, S”) in experiment [7] is 1.34.

Consider `OC[C@H]1O[C@@H](n2cc(F)c3c(-c4ccco4)ncnc32)[C@H](O)[C@@H]1O` [Example 20, 5-Fluoro-4-(furan-2-yl)-7-(β-D-ribofuranosyl)-7H-pyrrolo[2,3-d]pyrimidine], for which the IC50 in experiment [1] is 75 nM; in experiment [2], 175 nM; in experiment [3], 5 nM; in experiment [4], 4300 nM; in experiment [5] it was 109 nM; in experiment [6], 39 nM. Besides, the IC50 in experiment [8] amounted to 57 nM. For the same compound, the G1 % in experiment [7] (1.5 μM, replicate 1) was 22.32%; in experiment [7] (1.5 μM, replicate 2), 28.81%. Further, the G2/M % in experiment [7] (1.5 μM, replicate 1) came out at 30.19%; in experiment [7] (1.5 μM, replicate 2) it was 25.24%. The S % in experiment [7] (1.5 μM, replicate 1) was 47.49%; in experiment [7] (1.5 μM, replicate 2), 45.95%. For the same compound, in experiment [7], the “Relative change in cell cycle phase … G1” value amounted to 0.61. Besides, the “Relative change in cell cycle phase … G2/M” value in experiment [7] is 2.00. Further, in experiment [7], the “Relative change … to untreated control, S” value came to 1.06.

On to `OC[C@H]1O[C@@H](n2cc(F)c3c(-c4cccs4)ncnc32)[C@H](O)[C@@H]1O` [Example 21], for which the IC50 in experiment [1] is 83 nM; in experiment [2], 132 nM; in experiment [3], 9 nM; in experiment [4] it was 4700 nM; in experiment [5], 61 nM; in experiment [6], 9 nM. In experiment [8], the IC50 was 18 nM. Besides, the G1 % in experiment [7] (0.3 μM, replicate 1) amounted to 30.83%; in experiment [7] (0.3 μM, replicate 2) it was 32.73%. The G2/M % is given as 22.80% in experiment [7] (0.3 μM, replicate 1) and 23.53% in experiment [7] (0.3 μM, replicate 2). Also, the S % is 46.37% in experiment [7] (0.3 μM, replicate 1) and 43.74% in experiment [7] (0.3 μM, replicate 2). Further, the “Relative change in cell cycle phase … G1” value in experiment [7] turned out to be 0.74. The “Relative change in cell cycle phase … G2/M” value in experiment [7] was found to be 1.38. For the same compound, the “Relative change … to untreated control, S” value in experiment [7] came out at 1.12.
